Source: patent US20060046972A1, “Cytotoxic nucleoside analog compound 003 for treating cancer” (Parker Hughes Institute, priority 2004, published 2006)

Test system: Lewis rats
Test: Cumulative toxicity of intraperitoneal doses in Lewis rats
Type: in vivo
Set-up: RBC: unit not given here
Conditions: for ALC / ALT / ANC / AST / Albumin / Ammonia / Amylase / BUN / CPK / Calcium / Creatinine / Mean Weight Change (g ± SEM) / Mean Weight Change [%] / Morbidity / Phosphate / RBC / Total Bilirubin / Total Protein / Toxic Organ Lesions / Triglycerides / WBC / Weight Gain / Weight Loss: day 30
Description: 1.2.8 Animals Female CD-1 mice (Body weight: ˜25 g; Age: 7 week old) were purchased, from Charles River Laboratories (Willmington, Mass., USA). MMTV Neu-mice [FVB/N-TgN(MMTV neu)202MUL; Jackson Laboratory, Bar Harbor, Me.] were bred to produce multiple litters. All mice were housed in microisolator cages (Lab Products, Inc., Maywood, N.Y., USA) containing autoclaved bedding in a controlled specific pathogen-free (SPF) environment (12-h light/12-h dark photoperiod, 22±1° C., 60±10% relative humidity), which is fully accredited by the USDA (United States Department of Agriculture). Adult male Lewis rats (Body weight: ˜160 g) were obtained from the specific pathogen-free (SPF) breeding facilities of Harlan Sprague Dawley (Indianapolis, Id., USA) at 14 weeks of age. All husbandry and experimental contact made with the mice and rats maintained SPF conditions. The rats were kept in microisolater cages (Allentown Caging Equipment Co., Inc., Allentown, N.J., USA) containing autoclaved food, water, and bedding. Animal studies were approved by Parker Hughes Institute Animal Care and Use Committee and all animal care procedures 1.5 conformed to the Guide for the Care and Use of Laboratory Animals (National Research Council, National Academy Press, Washington D.C. 1996, USA).
The toxicity profile of Compound 003 in CD-1 mice and Lewis rats was examined, using standard procedures as previously reported for other experimental drugs (Uckun, et al., 2003, Arzneimittelforschun. 53:357; Uckun, et al., 2002, Clin Cancer Res. 8: 1224; Uckun, et al., 2002, Antimicrob Agents Chemother. 46:3428). In brief, mice and rats were treated with intraperitoneal injections of vehicle or Compound 003 at multiple dose levels. Compound 003 was administered as a 0.2 mL (for mice) or 0.5 mL (for rats) bolus injection containing 10% DMSO as a vehicle. Animals were allowed free access to autoclaved standard pellet food and tap water throughout the experiments and monitored daily for morbidity and mortality. Animals were electively sacrificed on day 7 or day 30 to determine the toxicity of Compound 003 by examining their blood chemistry profiles, blood counts, and evaluating multiple organs for the presence of toxic lesions. Blood was collected by intracardiac puncture following anesthesia with ketamine:xylazine and immediately heparinized. The blood chemistry profiles were examined using a Synchron CX5CE Chemical Analyzer (Beckman Instruments, Inc., Fullerton, Calif., USA). Blood counts (red blood cells [RBC], white blood cells [WBC] and platelets [Plt]) were determined using a HESKA Vet ABC-Diff Hematology Analyzer (HESKA Corporation, Fort Collins, Colo., USA). Absolute neutrophil counts (ANC) and absolute lymphocyte counts (ALC) were calculated from WBC values after determining the percentages of neutrophils and lymphocytes by a manual differential count. At the time of necropsy, […] from mice (bone, bone marrow, brain, cecum, heart, kidney, large intestine, liver, lung, lymph node, ovary, pancreas, skeletal muscle, skin, small intestine, spleen, stomach, thymus, thyroid gland, urinary bladder, and uterus, as available) and 21 different tissues from rats (bone, bone marrow, brain, coagulating gland, epididymis, heart, large intestine, small intestine, kidney, liver, lung, pancreas, peripheral nerve/spinal nerve, skeletal muscle, skin, spinal cord, spleen, stomach, testes, thymus, urinary bladder) were collected within 15 minutes after sacrifice, gross pathological findings were documented, organs were preserved in 10% neutral phosphate buffered formalin, and processed for histopathological examination. For histopathologic studies, formalin fixed tissues were dehydrated and embedded in paraffin by routine methods. Glass slides with affixed 4-5 micron tissue sections were prepared and stained with Hemotoxylin and Eosin (H&E). […]

[1] = 20 mg/kg i.p. for 30 consecutive days
[2] = 40 mg/kg i.p. for 30 consecutive days
[3] = 80 mg/kg i.p. for 30 consecutive days

COC(=O)C(C)NP(=O)(OCC1OC(n2cc(C)c(=O)[nH]c2=O)CC1N=[N+]=[N-])Oc1ccc(OC)cc1 (stereo not shown) [Compound 003, 3′-azidothymidine 5′-[p-methoxyphenylmethoxyalaninyl phosphate]]
ALC [1]: 9.6 ± 0.0 ×10^9L
ALT [1]: 68.0 ± 5.5 IU/L
ANC [1]: 2.4 ± 0.0 ×10^9L
AST [1]: 7.6 ± 1.6 IU/L
Albumin [1]: 1.5 ± 0.0 g/dL
Ammonia [1]: 77.2 ± 4.1 µmol/L
Amylase [1]: 1667.1 ± 29.8 U/L
BUN [1]: 21.8 ± 0.4 mg/dL
CPK [1]: 546.1 ± 109.9 IU/L
Calcium [1]: 10.9 ± 0.1 mg/dL
Creatinine [1]: 0.6 ± 0.0 mg/dL
Mean Weight Change (g ± SEM) [1]: 9.02 ± 1.39 g
Mean Weight Change [%] [1]: (2.68 ± 0.41%)
Morbidity [1]: 0/10
Phosphate [1]: 6.2 ± 0.2 mg/dL
RBC [1]: 10.0 ± 0.1 ×10^9
Total Bilirubin [1]: 0.6 ± 0.1 mg/dL
Total Protein [1]: 6.3 ± 0.1 g/dL
Toxic Organ Lesions [1]: 0/10
Triglycerides [1]: 87.4 ± 9.9 mg/dL
WBC [1]: 11.9 ± 0.4 ×10^9/L
Weight Gain [1]: 10/10
Weight Loss [1]: 0/10
ALC [2]: 10.7 ± 0.0 ×10^9L
ALT [2]: 64.2 ± 1.4 IU/L
ANC [2]: 1.9 ± 0.0 ×10^9L
AST [2]: 6.8 ± 1.0 IU/L
Albumin [2]: 1.6 ± 0.0 g/dL
Ammonia [2]: 91.4 ± 8.2 µmol/L
Amylase [2]: 1586.3 ± 31.4 U/L
BUN [2]: 21.8 ± 0.3 mg/dL
CPK [2]: 409.4 ± 55.3 IU/L
Calcium [2]: 10.4 ± 0.1 mg/dL
Creatinine [2]: 0.5 ± 0.0 mg/dL
Mean Weight Change (g ± SEM) [2]: 9.66 ± 1.36 g
Mean Weight Change [%] [2]: (2.85 ± 0.38%)
Morbidity [2]: 0/10
Phosphate [2]: 5.6 ± 0.1 mg/dL
RBC [2]: 10.1 ± 0.1 ×10^9
Total Bilirubin [2]: 0.6 ± 0.1 mg/dL
Total Protein [2]: 6.1 ± 0.1 g/dL
Toxic Organ Lesions [2]: 0/10
Triglycerides [2]: 103.0 ± 10.7 mg/dL
WBC [2]: 12.9 ± 0.4 ×10^9/L
Weight Gain [2]: 10/10
Weight Loss [2]: 0/10
ALC [3]: 10.0 ± 0.0 ×10^9L
ALT [3]: 62.5 ± 1.8 IU/L
ANC [3]: 2.1 ± 0.0 ×10^9L
AST [3]: 9.4 ± 0.7 IU/L
Albumin [3]: 1.6 ± 0.0 g/dL
Ammonia [3]: 92.8 ± 6.0 µmol/L
Amylase [3]: 1658.3 ± 51.8 U/L
BUN [3]: 22.7 ± 0.7 mg/dL
CPK [3]: 371.0 ± 44.3 IU/L
Calcium [3]: 10.5 ± 0.2 mg/dL
Creatinine [3]: 0.6 ± 0.0 mg/dL
Mean Weight Change (g ± SEM) [3]: 7.37 ± 1.70 g
Mean Weight Change [%] [3]: (2.24 ± 0.51%)
Morbidity [3]: 0/10
Phosphate [3]: 5.9 ± 0.1 mg/dL
RBC [3]: 9.8 ± 0.1 ×10^9
Total Bilirubin [3]: 0.7 ± 0.1 mg/dL
Total Protein [3]: 6.3 ± 0.1 g/dL
Toxic Organ Lesions [3]: 0/10
Triglycerides [3]: 83.4 ± 11.2 mg/dL
WBC [3]: 12.2 ± 0.3 ×10^9/L
Weight Gain [3]: 9/10
Weight Loss [3]: 1/10
postmortem gross pathology (20-80 mg/kg/day for 30 days): did not reveal any gross pathological findings
Slight tubular degeneration, share of animals (80 and 40 mg/kg): 50%
systemic toxicity by blood tests (day 30, 20-80 mg/kg/day): did not suggest any significant systemic toxicity
tolerability (i.p. daily for up to 30 days, daily dose as high as 80 mg/kg, cumulative as high as 2.4 g/kg): well tolerated
